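The compound was tested at five concentrations on cells cultured in 96-well plates, with a 48-hour exposure period. At the GI50, growth is halved. TGI is the concentration that stops growth completely.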
Key:
Assay in all cases: growth of human tumour cells (NCI), 48 h
HCT-15 colon = system: HCT-15 colon
EKVX NSCLC = system: EKVX NSCLC
SK-OV-3 ovarian = system: SK-OV-3 ovarian
BT-549 breast = system: BT-549 breast
SK-MEL-2 melanoma = system: SK-MEL-2 melanoma
OVCAR-4 ovarian = system: OVCAR-4 ovarian
MDA-MB-435 = system: MDA-MB-435
IGROV1 ovarian = system: IGROV1 ovarian
MCF7 breast = system: MCF7 breast
NCI-H226 lung = system: NCI-H226 lung

Compound | TGI (HCT-15 colon) | TGI (EKVX NSCLC) | TGI (SK-OV-3 ovarian) | TGI (BT-549 breast) | TGI (SK-MEL-2 melanoma) | TGI (OVCAR-4 ovarian) | TGI (MDA-MB-435) | TGI (IGROV1 ovarian) | TGI (MCF7 breast) | GI50 (HCT-15 colon) | GI50 (EKVX NSCLC) | GI50 (SK-OV-3 ovarian) | GI50 (BT-549 breast) | GI50 (SK-MEL-2 melanoma) | GI50 (OVCAR-4 ovarian) | GI50 (MDA-MB-435) | GI50 (IGROV1 ovarian) | GI50 (MCF7 breast) | GI50 (NCI-H226 lung) | TGI (NCI-H226 lung)
c1ccc2sc(SCCSc3nc4ccccc4s3)nc2c1 | > 100 µM | > 100 µM | > 100 µM | > 100 µM | > 100 µM | > 100 µM | > 100 µM | > 100 µM | > 100 µM | – | – | – | – | – | – | – | – | – | – | –
Cc1cccc(N(C)C(=O)[C@@H]2[C@H](O)CCN2c2nc(C)cc(C(F)(F)F)c2C#N)c1 | > 100 µM | > 100 µM | 81.1 µM | 45.2 µM | 35 µM | > 100 µM | > 100 µM | 94.5 µM | > 100 µM | 27.9 µM | 24.6 µM | 24.1 µM | 15.6 µM | 15.9 µM | 18.7 µM | 32 µM | 26.5 µM | 26.1 µM | 23.9 µM | > 100 µM
O=c1c2c(=NCCN3CCCC3)cc3c(=O)n(CCCN4CCOCC4)c(=O)c4c(-c5ccc(CN6CCCC6)cc5)cc(c(O)n1CCCN1CCOCC1)c2c4-3 | 1.11 µM | 0.484 µM | 1.43 µM | 0.5 µM | 0.382 µM | 0.23 µM | 0.147 µM | 1.47 µM | 0.446 µM | 0.0664 µM | 0.0828 µM | 0.086 µM | 0.116 µM | 0.112 µM | 0.0491 µM | 0.0395 µM | 0.0399 µM | 0.0284 µM | 0.0523 µM | 0.49 µM
NNC(=S)N/N=C(\C(=O)Nc1cccc(O)c1)C1C(=O)NC(=S)NC1=O | > 100 µM | > 100 µM | > 100 µM | > 100 µM | > 100 µM | > 100 µM | > 100 µM | > 100 µM | > 100 µM | – | – | – | – | – | – | – | – | – | – | > 100 µM
c1cc(NNc2cccc(-c3nn[nH]n3)c2)cc(-c2nn[nH]n2)c1 | > 100 µM | > 100 µM | > 100 µM | > 100 µM | > 100 µM | > 100 µM | > 100 µM | > 100 µM | > 100 µM | – | – | – | – | – | – | – | – | – | – | > 100 µM
CCC(C)[C@H]1O[C@]2(CC[C@@H]1C)C[C@@H]1C[C@@H](C/C=C(\C)[C@@H](OC3C[C@H](OC)C(O[C@H]4C[C@H](OC)[C@@H](O)[C@H](C)O4)[C@H](C)O3)[C@@H](C)/C=C/C=C3\CO[C@@H]4[C@H](O)C(C)=C[C@@H](C(=O)O1)[C@]34O)O2 (some centres not stated) | 10.2 µM | 15.1 µM | 5.04 µM | 7.3 µM | 4.79 µM | 10.8 µM | 15.9 µM | 13.5 µM | 10.8 µM | 2.74 µM | 2.95 µM | 2 µM | 2.73 µM | 2.04 µM | 3.28 µM | 3.89 µM | 2.95 µM | 3.02 µM | 1.58 µM | 3.79 µM
Fc1cc2[nH]ncc2c2c3c(c(-c4cn[nH]c4C(F)(F)F)nc12)CCCC3 | 15.2 µM | 5.3 µM | – | 2.96 µM | 5.67 µM | – | 12.1 µM | 5.88 µM | > 100 µM | 2.79 µM | 1.84 µM | – | 1.38 µM | 2.07 µM | – | 2.39 µM | 0.802 µM | 1.18 µM | 2.64 µM | > 100 µM
C/C(=N\NC(=S)N1CCCCC1)c1ccccn1 | 12.6 µM | 3.99 µM | 1.94 µM | 5.27 µM | 3.8 µM | 4.57 µM | 5.89 µM | 5.79 µM | 6.13 µM | < 0.0169 µM | < 0.0145 µM | 0.213 µM | 0.745 µM | 0.702 µM | < 0.01 µM | 0.208 µM | < 0.01 µM | < 0.01 µM | 0.32 µM | 2.95 µM
C=C1CC[C@@H]2[C@](C)(COC(C)=O)[C@H](OC(C)=O)CC[C@@]2(C)[C@@H]1CC(Nc1ccc(S(=O)(=O)NC(C)=O)cc1)C1=CCOC1=O (some centres not stated) | 4.36 µM | 20.9 µM | 18.7 µM | 7.93 µM | 19.1 µM | 13.7 µM | 10.6 µM | 15.4 µM | 11.3 µM | 1.53 µM | 10.8 µM | 9.31 µM | 2.32 µM | 8.68 µM | 4.14 µM | 2.79 µM | 5.31 µM | 1.92 µM | 1.92 µM | 4.62 µM
Cc1cc(S(=O)(=O)Nc2nc3ccccc3o2)c(SCc2ccccc2)cc1Cl | 52.8 µM | 55.8 µM | > 100 µM | 79.3 µM | > 100 µM | 67.9 µM | 42.7 µM | > 100 µM | 78.3 µM | 21.5 µM | 21.9 µM | 34.3 µM | 30.5 µM | 48.6 µM | 25.4 µM | 19.8 µM | 48.9 µM | 22.4 µM | 26.4 µM | 72.9 µM
CCN(CC)c1ccc(/C=N/NC(=O)CSc2nc3ccccc3c(=O)n2CCc2ccc(S(N)(=O)=O)cc2)c(O)c1 | > 100 µM | > 100 µM | > 100 µM | > 100 µM | > 100 µM | > 100 µM | > 100 µM | > 100 µM | > 100 µM | 2.82 µM | 1.42 µM | 2.72 µM | 2.21 µM | 4.34 µM | 0.549 µM | 3.89 µM | 1.48 µM | 1.64 µM | 1.34 µM | > 100 µM
COc1cc(Nc2nc3cc(N)cc(N)c3nc2-c2ccccc2)cc(OC)c1OC | 45.4 µM | 47.4 µM | 57.8 µM | 33.6 µM | 35.2 µM | 0.892 µM | 24.4 µM | 58.2 µM | 94.5 µM | 15.3 µM | 17.6 µM | 23 µM | 16.8 µM | 15.9 µM | 0.0313 µM | 7.35 µM | 15.7 µM | 25.5 µM | – | –
COc1ccc2c(c1OC)C[C@@H]1c3c(cc4c(c3-2)OCO4)CCN1C | > 100 µM | > 100 µM | 58.4 µM | > 100 µM | 88.7 µM | > 100 µM | > 100 µM | 99.1 µM | > 100 µM | – | – | – | – | – | – | – | – | – | – | 47 µM
CC(C)C1=CC(=O)C(C)(C2C(O)CC3(C)C4CC=C5C(CCC(OC6OC(CO)C(O)C(O)C6OC6OC(C)C(O)C(O)C6O)C5(C)C)C4(C)C(=O)CC23C)O1 (configuration not stated) | > 100 µM | > 100 µM | > 100 µM | > 100 µM | – | > 100 µM | > 100 µM | > 100 µM | > 100 µM | – | – | – | – | – | – | – | – | – | – | > 100 µM

From PubChem BioAssay (NCI)
